According to paper PMC5684143, “New melanocortin-like peptide of E. coli can suppress inflammation via the mammalian melanocortin-1 receptor (MC1R): possible endocrine-like function for microbes of the gut” (NPJ Biofilms and Microbiomes, 2017):
Several values for one entry are separate records, joined by “and”; a condition that tells them apart may be missing. Identical values can stand only once.

How the values were obtained:
[1] = system: human peripheral blood mononuclear cells (PBMC); test: HMGB1-induced TNF release by human PBMC-derived macrophages; type: cell-based; conditions: differentiated human macrophages; HMGB1 6 hours; ELISA; three independent experiments in duplicate
Procedure: Human PBMC were isolated by density gradient through Ficoll-Paque^TM PLUS centrifugation (Amersham Pharmacia Biotech), and suspended in RPMI 1640 containing 10% (vol/vol) heat-inactivated human serum (BioWhittaker Inc.), penicillin 100 U/ml, and streptomycin 100 μg/ml, and incubated at 37 °C in a humidified incubator with 5% CO2 atmosphere overnight. Non-adherent cells were discarded. Adherent monocytes were washed twice with PBS and were then suspended in 12-well and 24-well tissue culture plates and incubated in the same medium but now enriched with 2.5 ng/ml macrophage colony-stimulating factor for 5–7 days.[33] […]
Concentrations of TNF and IL-6 were each determined using a commercially available enzyme-linked immunosorbent assay (ELISA) kit (R&D System Inc.) as previously described.[34] The levels of TNF or IL-6 were calculated with reference to standard curves.
Human peripheral blood mononuclear cells (PBMC) were isolated by density gradient centrifugation through Ficoll-PaqueTM PLUS, and cultured for 5-7 days in medium containing macrophage colony-stimulating factor (2.5 ng/ml). […] The content of TNF in the cell-free medium was determined by ELISA and expressed as mean ± SEM of three independent experiments performed in duplicate. *p< 0.05, **p< 0.01 vs. control (=HMGB1 alone without added melanocortin peptide).

RAW 264.7 cells = test: Cyclic-AMP production in RAW 264.7 cells; type: cell-based, murine; conditions: 30 min, 37 °C, 1 mM IBMX, four experiments per peptide, each value from separate experiment(s)
Procedure: RAW 264.7 cells were grown to confluence in culture plates, harvested by classical methods, and then seeded onto 48-well plates (1 × 10^6/ml). Cells were incubated with peptide at 37 °C in Opti-MEM I serum-free medium containing 1 mM 3-isobutyl-1-methylxanthine. At 30 min, cells were lysed in the original wells. The lysates were extracted from the wells, and cyclic-AMP measurements carried out using the Biotrak kit (cyclic-AMP Biotrak Enzymeimmunoassay System, Amersham Biosciences) including a standard cyclic-AMP curve as recommended by the suppliers.[35]
RAW 264.7 cells were incubated with peptides for 30 minutes at 37 degrees. Cell lysates were extracted and c-AMP measurements carried out using a commercial kit [c-AMP biotrack-immunoassay system, Amersham Biosciences] with a c-AMP standard curve as recommended by the suppliers. […] The only experiment with ACTH is shown above. (Effects of LPS at 4 nanograms per ml. or of HMGB1 at 0.1 µg. per ml. on ligand-stimulated c-AMP accumulation were quite modest and inconsistent). […]

NF-kappa B = test: NF-kappa-B activity (electrophoretic mobility shift assay) in LPS-treated RAW 264.7 cells; type: cell-based, murine; conditions: LPS 100 ng/ml; peptide 10^-8 M and 10^-6 M; 2 hours; EMSA; two separate experiments
Procedure: Nuclear extracts were prepared from 1 × 10^6 treated cells using the NE-PER nuclear extraction reagents (Pierce). DNA was biotin labeled using the biotin 3ʹ-end-labeling kit (Pierce) in a 50-µl reaction buffer and 5 pmol of double-stranded NF-kappa-B oligonucleotide (5ʹ-[…]-3ʹ and 3ʹ-[…]-5ʹ, Promega). Electrophoretic mobility shift assays for NF-κB was performed using the Lightshift Chemiluminescent Electrophoretic Mobility Shift Assay kit (Pierce) following the manufacturer’s protocol. Densitometric values for the active transcription factors were obtained using GS-800 Calibrated Densitometer Software (Biorad).[36]
RAW 264.7 cells ([…]) were incubated with LPS (100 ng/ml) with or without MECO-1 or alpha-MSH at 10^-8 M and 10^-6 M for 2 hours. Nuclear extracts were mixed with biotin-labeled oligonucleotides containing binding sites for NF-kappa B and then run on a gel, 4-20% Ready gel TBE, in an electrophoretic mobility shift assay. Data represent mean +/- SEM of two separate experiments.

alpha-melanocyte-stimulating hormone [alpha-MSH]
attenuation of HMGB-1-induced TNF release [1]: significant effects in the picomolar range
peptide concentration at which statistically significant stimulation of cAMP was noted (single experiments) (RAW 264.7 cells): 10^-9 M and 10^-10 M
rise in NF-kB activity (NF-kappa B): active in attenuating
